# Legend:
# [1] = tested on: Staphylococcus epidermidis; assay: Antimicrobial activity against methicillin-resistant Staphylococcus epidermidis 488/11 after 18 hrs by two-fold serial microdilution method; format: functional; settings: 488/11, 18 h
# [2] = tested on: Staphylococcus aureus; assay: Antimicrobial activity against methicillin-resistant Staphylococcus aureus 522/12 after 18 hrs by two-fold serial microdilution method; format: functional; settings: 522/12, 18 h
# [3] = tested on: Staphylococcus aureus; assay: Antimicrobial activity against Staphylococcus aureus ATCC 6538 after 18 hrs by two-fold serial microdilution method; format: functional; settings: ATCC 6538, 18 h
# [4] = Antiproliferative activity against human doxorubicin-resistant LoVo/DX cells assessed as growth inhibition after 72 hrs by SRB method; format: functional, cell-based
# [5] = tested on: Staphylococcus epidermidis; assay: Antimicrobial activity against methicillin-resistant Staphylococcus epidermidis 467/11 after 18 hrs by two-fold serial microdilution method; format: functional; settings: 467/11, 18 h
# [6] = tested on: Staphylococcus epidermidis; assay: Antimicrobial activity against methicillin-resistant Staphylococcus epidermidis 459/11 after 18 hrs by two-fold serial microdilution method; format: functional; settings: 459/11, 18 h
# [7] = Antiproliferative activity against human LS180 cells assessed as growth inhibition after 72 hrs by SRB method; format: functional, cell-based; settings: Homo sapiens, LS180, 72 h
# [8] = tested on: HL-60; assay: Selectivity index, ratio of IC50 for mouse BALB/3T3 cells to IC50 for human HL60 cells; format: functional
# [9] = tested on: Staphylococcus aureus; assay: Antimicrobial activity against methicillin-resistant Staphylococcus aureus 585/12 after 18 hrs by two-fold serial microdilution method; format: functional; settings: 585/12, 18 h
# [10] = tested on: LoVo; assay: Selectivity index, ratio of IC50 for mouse BALB/3T3 cells to IC50 for human LoVo cells; format: functional
# [11] = tested on: Staphylococcus epidermidis; assay: Antimicrobial activity against methicillin-resistant Staphylococcus epidermidis 466/11 after 18 hrs by two-fold serial microdilution method; format: functional; settings: 466/11, 18 h
# [12] = tested on: Staphylococcus aureus; assay: Antimicrobial activity against methicillin-resistant Staphylococcus aureus 456/11 after 18 hrs by two-fold serial microdilution method; format: functional; settings: 456/11, 18 h
# [13] = tested on: Staphylococcus epidermidis; assay: Antimicrobial activity against methicillin-resistant Staphylococcus epidermidis 470/11 after 18 hrs by two-fold serial microdilution method; format: functional; settings: 470/11, 18 h
# [14] = tested on: Staphylococcus epidermidis; assay: Antimicrobial activity against methicillin-resistant Staphylococcus epidermidis 460/11 after 18 hrs by two-fold serial microdilution method; format: functional; settings: 460/11, 18 h
# [15] = Antiproliferative activity against human HL60 cells assessed as growth inhibition after 72 hrs by MTT assay; format: functional, cell-based; settings: HL-60, 72 h
# [16] = tested on: Staphylococcus epidermidis; assay: Antimicrobial activity against methicillin-resistant Staphylococcus epidermidis 489/11 after 18 hrs by two-fold serial microdilution method; format: functional; settings: 489/11, 18 h
# [17] = Selectivity index, ratio of IC50 for mouse BALB/3T3 cells to IC50 for human LS180 cells; format: functional
# [18] = tested on: Staphylococcus aureus; assay: Antimicrobial activity against methicillin-resistant Staphylococcus aureus 514/11 after 18 hrs by two-fold serial microdilution method; format: functional; settings: 514/11, 18 h
# [19] = tested on: HT-29; assay: Antiproliferative activity against human HT-29 cells assessed as growth inhibition after 72 hrs by SRB method; format: functional, cell-based; settings: Homo sapiens, HT-29, 72 h
# [20] = Antiproliferative activity against human vincristine-resistant HL60/Vinc cells assessed as growth inhibition after 72 hrs by MTT assay; format: functional; settings: Homo sapiens, HL60/vinc, 72 h
# [21] = tested on: Staphylococcus epidermidis; assay: Antimicrobial activity against methicillin-resistant Staphylococcus epidermidis 468/11 after 18 hrs by two-fold serial microdilution method; format: functional; settings: 468/11, 18 h
# [22] = tested on: Staphylococcus epidermidis; assay: Antimicrobial activity against methicillin-resistant Staphylococcus epidermidis 469/11 after 18 hrs by two-fold serial microdilution method; format: functional; settings: 469/11, 18 h
# [23] = tested on: LoVo; assay: Antiproliferative activity against human LoVo cells assessed as growth inhibition after 72 hrs by SRB method; format: functional, cell-based; settings: Homo sapiens, LoVo, 72 h
# [24] = tested on: LoVo; assay: Resistance index, ratio of IC50 for human LoVo/DX cells to IC50 for human LoVo cells
# [25] = tested on: Staphylococcus aureus; assay: Antimicrobial activity against methicillin-resistant Staphylococcus aureus 572/12 after 18 hrs by two-fold serial microdilution method; format: functional; settings: 572/12, 18 h
# [26] = tested on: Staphylococcus aureus; assay: Antimicrobial activity against Staphylococcus aureus ATCC 25923 after 18 hrs by two-fold serial microdilution method; format: functional; settings: ATCC 25923, 18 h
# [27] = tested on: Staphylococcus aureus; assay: Antimicrobial activity against methicillin-resistant Staphylococcus aureus 462/11 after 18 hrs by two-fold serial microdilution method; format: functional; settings: 462/11, 18 h
# [28] = tested on: HT-29; assay: Selectivity index, ratio of IC50 for mouse BALB/3T3 cells to IC50 for human HT-29 cells; format: functional
# [29] = tested on: HL-60; assay: Resistance index, ratio of IC50 for human HL60/Vinc cells to IC50 for human HL60 cells
# [30] = tested on: Staphylococcus epidermidis; assay: Antimicrobial activity against methicillin-resistant Staphylococcus epidermidis 461/11 after 18 hrs by two-fold serial microdilution method; format: functional; settings: 461/11, 18 h
# [31] = Antiproliferative activity against human SW707 cells assessed as growth inhibition after 72 hrs by SRB method; format: functional, cell-based; settings: Homo sapiens, SW707, 72 h
# [32] = tested on: Staphylococcus aureus; assay: Antimicrobial activity against Staphylococcus aureus […] 4163 after 18 hrs by two-fold serial microdilution method; format: functional
# [33] = tested on: Staphylococcus aureus; assay: Antimicrobial activity against Staphylococcus aureus ATCC 29213 after 18 hrs by two-fold serial microdilution method; format: functional; settings: ATCC 29213, 18 h
# [34] = tested on: Staphylococcus epidermidis; assay: Antimicrobial activity against Staphylococcus epidermidis ATCC 12228 after 18 hrs by two-fold serial microdilution method; format: functional; settings: ATCC 12228, 18 h
# [35] = tested on: Staphylococcus aureus; assay: Antimicrobial activity against methicillin-resistant Staphylococcus aureus 452/11 after 18 hrs by two-fold serial microdilution method; format: functional; settings: 452/11, 18 h
# [36] = Selectivity index, ratio of IC50 for mouse BALB/3T3 cells to IC50 for human LoVo/DX cells; format: functional
# [37] = Selectivity index, ratio of IC50 for mouse BALB/3T3 cells to IC50 for human HL60/Vinc cells; format: functional
# [38] = tested on: Staphylococcus aureus; assay: Antimicrobial activity against methicillin-resistant Staphylococcus aureus 573/12 after 18 hrs by two-fold serial microdilution method; format: functional; settings: 573/12, 18 h
# [39] = tested on: Staphylococcus aureus; assay: Antimicrobial activity against methicillin-resistant Staphylococcus aureus 537/12 after 18 hrs by two-fold serial microdilution method; format: functional; settings: 537/12, 18 h
# [40] = tested on: BALB/3T3; assay: Antiproliferative activity against mouse BALB/3T3 cells assessed as growth inhibition after 72 hrs by SRB method; format: cell-based; settings: BALB/3T3, 72 h
# [41] = tested on: Staphylococcus epidermidis; assay: Antimicrobial activity against Staphylococcus epidermidis ATCC 35984 after 18 hrs by two-fold serial microdilution method; format: functional; settings: ATCC 35984, 18 h
# [42] = tested on: Staphylococcus aureus; assay: Antimicrobial activity against methicillin-resistant Staphylococcus aureus 586/12 after 18 hrs by two-fold serial microdilution method; format: functional; settings: 586/12, 18 h
# [43] = Selectivity index, ratio of IC50 for mouse BALB/3T3 cells to IC50 for human SW707 cells; format: functional
compound,measurement,setting,value
O=c1[nH]cc(F)c(=O)[nH]1 [FLUOROURACIL],MIC,[1],1.92 µM
same,MIC,[2],7.69 µM
same,MIC,[3],3.85 µM
same,IC50,[4],6 µM
same,MIC,[5],0.48 µM
same,MIC,[6],3.85 µM
same,IC50,[7],38.9 µM
same,Selectivity Index,[8],0.14
same,MIC,[9],3.85 µM
same,Selectivity Index,[10],0.69
same,MIC,[11],0.48 µM
same,MIC,[12],3.85 µM
same,MIC,[13],0.48 µM
same,MIC,[14],1.92 µM
same,IC50,[15],22.5 µM
same,MIC,[16],0.48 µM
same,Selectivity Index,[17],0.08
same,MIC,[18],3.85 µM
same,IC50,[19],25.1 µM
same,IC50,[20],21.2 µM
same,MIC,[21],0.48 µM
same,MIC,[22],1.92 µM
same,IC50,[23],4690 nM
same,Ratio IC50,[24],1.28
same,MIC,[25],3.85 µM
same,MIC,[26],1.92 µM
same,MIC,[27],7.69 µM
same,Selectivity Index,[28],0.13
same,Ratio IC50,[29],0.94
same,MIC,[30],0.96 µM
same,IC50,[31],20.5 µM
same,MIC,[32],1.92 µM
same,MIC,[33],3.85 µM
same,MIC,[34],3.85 µM
same,MIC,[35],3.85 µM
same,Selectivity Index,[36],0.54
same,Selectivity Index,[37],0.15
same,MIC,[38],3.85 µM
same,MIC,[39],7.69 µM
same,IC50,[40],3.23 µM
same,MIC,[41],1.92 µM
same,MIC,[42],3.85 µM
same,Selectivity Index,[43],0.16
CC[C@@H](C(=O)[C@@H](C)[C@@H](O)[C@H](C)[C@@H]1O[C@@H]([C@@H](CC)C(=O)O)CC[C@@H]1C)[C@H]1O[C@]2(C=C[C@@H](O)[C@]3(CC[C@@](C)([C@H]4CC[C@](O)(CC)[C@H](C)O4)O3)O2)[C@H](C)C[C@@H]1C [SALINOMYCIN],MIC,[1],2.66 µM
same,MIC,[2],2.66 µM
same,MIC,[3],2.66 µM
same,IC50,[4],0.76 µM
same,MIC,[5],2.66 µM
same,MIC,[6],2.66 µM
same,IC50,[7],0.61 µM
same,Selectivity Index,[8],32.17
same,MIC,[9],2.66 µM
same,Selectivity Index,[10],25.92
same,MIC,[11],2.66 µM
same,MIC,[12],1.33 µM
same,MIC,[13],2.66 µM
same,MIC,[14],2.66 µM
same,IC50,[15],0.29 µM
same,MIC,[16],2.66 µM
same,Selectivity Index,[17],15.3
same,MIC,[18],2.66 µM
same,IC50,[19],1.03 µM
same,IC50,[20],2.09 µM
same,MIC,[21],2.66 µM
same,MIC,[22],2.66 µM
same,IC50,[23],360 nM
same,Ratio IC50,[24],2.11
same,MIC,[25],1.33 µM
same,MIC,[26],2.66 µM
same,MIC,[27],2.66 µM
same,Selectivity Index,[28],9.06
same,Ratio IC50,[29],7.21
same,MIC,[30],2.66 µM
same,IC50,[31],1.73 µM
same,MIC,[32],2.66 µM
same,MIC,[33],2.66 µM
same,MIC,[34],2.66 µM
same,MIC,[35],1.33 µM
same,Selectivity Index,[36],12.28
same,Selectivity Index,[37],4.46
same,MIC,[38],1.33 µM
same,MIC,[39],2.66 µM
same,IC50,[40],9.33 µM
same,MIC,[41],2.66 µM
same,MIC,[42],2.66 µM
same,Selectivity Index,[43],5.39

# Reference: ChEMBL document CHEMBL3414487, “Synthesis and biological activity of salinomycin conjugates with floxuridine” (Eur J Med Chem, 2015)
